Among the data in US20250276982A1, “KRAS INHIBITORS” (ASCENTAGE PHARMA (SUZHOU) CO., LTD., priority 2021, published 2025) are IC50 values, retold here.

One test has as its system p-ERK in AGS cells. In words: p-ERK assay in AGS cells (fixed cells, anti-p-ERK / β-Actin antibodies, IR imaging). It counts as cell-based. The settings on record: Homo sapiens, 3 h at 37° C., p-ERK detected by antibody with β-Actin, IR fluorescence. As for the experimental part: The expression of p-ERK was detected in this assay. At first, the AGS cells (40000 cells/well) were seeded in 96-well plate culture overnight and treated with KRAS-G12D compounds inhibitors at concentrations of 1, 0.33, 0.11, 0.03, 0.01, 0.004, 0.001, 0.0004, 0.0001 μM for 3 h at 37° C. Then, add an equal volume (100 μL) of 8% paraformaldehyde solution to fix and crosslink the cells to the microplate for 15 minutes. Add 100 μL of 1× permeabilization solution to wells for 30 min and add 100 μL of 1× blocking solution for 2 h. Wash with PBS 3 times after each reaction. At last, Incubation with primary antibody (Anti-mouse β-Actin and Anti-rabbit p-ERK) and secondary antibody (Goat anti-Mouse IgG H&L IRDye 800CW and Goat anti-Rabbit IgG H&L IRDye 680RW) for 2 h, As appropriate, image the microplate with an IR scanner or develop the HRP labeled microplate and read it with a spectrophotometer. The fluorescence signal was monitored using a microplate reader (Azure biosystems, Sapphire biomolecular imager) using excitation and emission wavelengths of 680 and 800 nm, respectively. Export data. The inhibitor dose-reponse curves were analyzed using normalized IC50 regression curve fitting with control based normalization.

In the next test the test system is GP2d cells. Briefly: Cellular proliferation assay in GP2d cells (CellTiterGlo luminescent cell viability assay). Type of test: cell-based. Conditions: 72 hours treatment, CellTiter-Glo. As for the experimental part:
Example 32: Cellular Proliferation Assay in GP2d Cells
The inhibitory effect of test compounds on cellular proliferation was determined using CellTiterGlo® luminescent cell viability assay (Promega) following manufacturer's instruction.
GP2d cells (ECACC #95090715) were cultured in DMEM medium supplemented with 10% fetal bovine serum, 10 U/ml penicillin and 10 ug/ml streptomycin. Cells were plated in 96-well plates at a density of 2000 cells/well and allowed attach for […]. Then the cells were treated with various concentrations of test compounds for 72 hours. CellTiter-Glo® Reagent was added to wells and incubated for 10 minutes at room temperature. The plates were read on GloMax® 96 Microplate Luminometer or compatible microplate readers. The percentage of cellular viability was calculated as: […]
A general note: ATP-based viability assays read luminescence as a measure of living cells.

The term IC50 denotes the point on the concentration scale where inhibition reaches its midpoint. The low end stands for higher potency, the high end for lower potency. Regarding `Oc1cc(-c2ncc3c(N4C[C@H]5CC[C@@H](C4)N5)nc(OCC4(CN5CCOCC5)CC4)nc3c2F)c2c3c(ccc2c1)CCC3` [Example 9, 9-(4-((1R,5S)-3,8-diazabicyclo[3.2.1]octan-3-yl)-8-fluoro-2-((1-(morpholinomethyl)cyclopropyl)methoxy)pyrido[4,3-d]pyrimidin-7-yl)-2,3-dihydro-1H-cyclopenta[a]naphthalen-7-ol], the values for the IC50 in the test with p-ERK in AGS cells and with GP2d cells were 0.031 µM and 0.175 µM, respectively. For `CN(C)CC1(COc2nc(N3C[C@H]4CC[C@@H](C3)N4)c3cnc(-c4cc(O)cc5ccc6c(c45)CCC6)c(F)c3n2)CC1` [Example 8, 9-(4-((1R,5S)-3,8-diazabicyclo[3.2.1]octan-3-yl)-2-((1-((dimethylamino)methyl)cyclopropyl)methoxy)-8-fluoropyrido[4,3-d]pyrimidin-7-yl)-2,3-dihydro-1H-cyclopenta[a]naphthalen-7-ol], the IC50 with p-ERK in AGS cells was found to be 0.041 µM; in the test with GP2d cells, 0.284 µM. Consider `CC1CCc2ccc3cc(O)cc(-c4ncc5c(N6C[C@H]7CC[C@@H](C6)N7)nc(OC[C@@]67CCCN6C[C@H](F)C7)nc5c4F)c3c21` (stereo partly drawn) [Example 14, 9-(4-((1R,5S)-3,8-diazabicyclo[3.2.1]octan-3-yl)-8-fluoro-2-(((2R,7aS)-2-fluorotetrahydro-1H-pyrrolizin-7a(5H)-yl)methoxy)pyrido[4,3-d]pyrimidin-7-yl)-1-methyl-2,3-dihydro-1H-cyclopenta[a]naphthalen-7-ol], for which the IC50 came out at 0.085 µM in the test with p-ERK in AGS cells and 0.429 µM in the test on GP2d cells. On to `Oc1cc(-c2ncc3c(N4C[C@H]5CC[C@@H](C4)N5)nc(OC[C@@]45CCCN4C[C@H](F)C5)nc3c2F)c2c(ccc3ccsc32)c1` [Example 15, 9-(4-((1R,5S)-3,8-diazabicyclo[3.2.1]octan-3-yl)-8-fluoro-2-(((2R,7aS)-2-fluorotetrahydro-1H-pyrrolizin-7a(5H)-yl)methoxy)pyrido[4,3-d]pyrimidin-7-yl)naphtho[1,2-b]thiophen-7-ol], for which the IC50 in the test on p-ERK in AGS cells stood at 0.159 µM; in the test on GP2d cells, 0.541 µM. For `Oc1cc(-c2ncc3c(N4CC5CCC4CN5)nc(OC[C@@]45CCCN4C[C@H](F)C5)nc3c2F)c2c3c(ccc2c1)CCC3` (stereo partly drawn) [Example 7, 9-(4-(2,5-diazabicyclo[2.2.2]octan-2-yl)-8-fluoro-2-(((2R,7aS)-2-fluorotetrahydro-1H-pyrrolizin-7a(5H)-yl)methoxy)pyrido[4,3-d]pyrimidin-7-yl)-2,3-dihydro-1H-cyclopenta[a]naphthalen-7-ol], in that order: 0.149 µM and 0.92 µM. Turning to `Oc1cc(-c2ncc3c(N4C[C@H]5CC[C@@H](C4)N5)nc(OC[C@@]45CCCN4C[C@H](F)C5)nc3c2F)c2c3c(ccc2c1)COC3` [Example 21, 9-(4-((1R,5S)-3,8-diazabicyclo[3.2.1]octan-3-yl)-8-fluoro-2-(((2R,7aS)-2-fluorotetrahydro-1H-pyrrolizin-7a(5H)-yl)methoxy)pyrido[4,3-d]pyrimidin-7-yl)-1,3-dihydronaphtho[1,2-c]furan-7-ol], the IC50 worked out at 0.052 µM with p-ERK in AGS cells and 0.263 µM with GP2d cells. `Oc1cc(-c2ncc3c(N4C[C@H]5CC[C@@H](C4)N5)nc(OC[C@@]45CCCN4C[C@H](F)C5)nc3c2F)c2c(ccn3cccc23)c1` [Example 22, 10-(4-((1R,5S)-3,8-diazabicyclo[3.2.1]octan-3-yl)-8-fluoro-2-(((2R,7aS)-2-fluorotetrahydro-1H-pyrrolizin-7a(5H)-yl)methoxy)pyrido[4,3-d]pyrimidin-7-yl)pyrrolo[2,1-a]isoquinolin-8-ol] registered an IC50 in the test on GP2d cells of 3.34 µM. On to `Fc1c(-c2cccc3ccc4c(c23)CCO4)ncc2c(N3C[C@H]4CC[C@@H](C3)N4)nc(OC[C@@]34CCCN3C[C@H](F)C4)nc12` [Example 3, 4-((1R,5S)-3,8-diazabicyclo[3.2.1]octan-3-yl)-7-(1,2-dihydronaphtho[2,1-b]furan-9-yl)-8-fluoro-2-(((2R,7aS)-2-fluorotetrahydro-1H-pyrrolizin-7a(5H)-yl)methoxy)pyrido[4,3-d]pyrimidine], for which the IC50 in the test with p-ERK in AGS cells and in the test on GP2d cells was 8.8 µM in each case. Turning to `C[C@@H]1COCCN1CC1(COc2nc(N3C[C@H]4CC[C@@H](C3)N4)c3cnc(-c4cc(O)cc5ccc6c(c45)CCC6)c(F)c3n2)CC1` [Example 11, 9-(4-((1R,5S)-3,8-diazabicyclo[3.2.1]octan-3-yl)-8-fluoro-2-((1-(((R)-3-methylmorpholino)methyl)cyclopropyl)methoxy)pyrido[4,3-d]pyrimidin-7-yl)-2,3-dihydro-1H-cyclopenta[a]naphthalen-7-ol], the IC50 stood at 0.135 µM in the test on p-ERK in AGS cells and 0.169 µM in the test with GP2d cells. As for `Oc1cc(-c2c(F)cc3c(N4C[C@H]5CC[C@@H](C4)N5)nc(OCC4(CN5C6CCC5COC6)CC4)nc3c2F)c2c3c(ccc2c1)CCC3` [Example 28, 9-(2-((1-((3-oxa-8-azabicyclo[3.2.1]octan-8-yl)methyl)cyclopropyl)methoxy)-4-((1R,5S)-3,8-diazabicyclo[3.2.1]octan-3-yl)-6,8-difluoroquinazolin-7-yl)-2,3-dihydro-1H-cyclopenta[a]naphthalen-7-ol], the IC50 is 0.087 µM with p-ERK in AGS cells and 0.253 µM with GP2d cells.

Turning to `Oc1cc(-c2ccc3c(N4C[C@H]5CC[C@@H](C4)N5)nc(OCC4(CN5CCOCC5)CC4)nc3c2F)c2c3c(ccc2c1)CCC3` [Example 26, 9-(4-((1R,5S)-3,8-diazabicyclo[3.2.1]octan-3-yl)-8-fluoro-2-((1-(morpholinomethyl)cyclopropyl)methoxy)quinazolin-7-yl)-2,3-dihydro-1H-cyclopenta[a]naphthalen-7-ol], the figures for the IC50 in the test with p-ERK in AGS cells and in the test on GP2d cells were 0.039 µM and 0.195 µM, respectively. With `Oc1cc(-c2ccc3c(N4C[C@H]5CC[C@@H](C4)N5)nc(OCC4(CN5C6CCC5COC6)CC4)nc3c2F)c2c3c(ccc2c1)CCC3` [Example 27, 9-(2-((1-((3-oxa-8-azabicyclo[3.2.1]octan-8-yl)methyl)cyclopropyl)methoxy)-4-((1R,5S)-3,8-diazabicyclo[3.2.1]octan-3-yl)-8-fluoroquinazolin-7-yl)-2,3-dihydro-1H-cyclopenta[a]naphthalen-7-ol], the IC50 with p-ERK in AGS cells stood at 0.131 µM; in the test with GP2d cells, 0.37 µM. For `Oc1cc(-c2ncc3c(N4C[C@H]5CC[C@@H](C4)N5)nc(OC[C@@]45CCCN4C[C@H](F)C5)nc3c2F)c2c(ccc3occc32)c1` [Example 5, 9-(4-((1R,5S)-3,8-diazabicyclo[3.2.1]octan-3-yl)-8-fluoro-2-(((2R,7aS)-2-fluorotetrahydro-1H-pyrrolizin-7a(5H)-yl)methoxy)pyrido[4,3-d]pyrimidin-7-yl)naphtho[2,1-b]furan-7-ol], in that order: 0.037 µM and 2.86 µM. On to `Oc1cc(-c2c(Cl)cc3c(N4C[C@H]5CC[C@@H](C4)N5)nc(OC[C@@]45CCCN4C[C@H](F)C5)nc3c2F)c2c3c(ccc2c1)CCC3` [Example 31, 9-(4-((1R,5S)-3,8-diazabicyclo[3.2.1]octan-3-yl)-6-chloro-8-fluoro-2-(((2R,7aS)-2-fluorotetrahydro-1H-pyrrolizin-7a(5H)-yl)methoxy)quinazolin-7-yl)-2,3-dihydro-1H-cyclopenta[a]naphthalen-7-ol], for which, in the test on GP2d cells, the IC50 was found to be 0.737 µM. Regarding `CC1(O)CCCN(c2nc(OCC34CCCN3C[C@H](F)C4)nc3c(F)c(-c4cc(O)cc5ccc6c(c45)CCC6)ncc23)C1` (stereo partly drawn) [Example 13, 1-(8-fluoro-2-(((2R)-2-fluorotetrahydro-1H-pyrrolizin-7a(5H)-yl)methoxy)-7-(7-hydroxy-2,3-dihydro-1H-cyclopenta[a]naphthalen-9-yl)pyrido[4,3-d]pyrimidin-4-yl)-3-methylpiperidin-3-ol], the IC50 in the test with p-ERK in AGS cells came to 0.022 µM; with GP2d cells, 0.01 µM. In the test on GP2d cells, `Oc1cc(-c2ncc3c(N4C[C@H]5CC[C@@H](C4)N5)nc(OC[C@@]45CCCN4C[C@H](F)C5)nc3c2F)c2c(c1)cc1n2CCC1` [Example 19, 5-(4-((1R,5S)-3,8-diazabicyclo[3.2.1]octan-3-yl)-8-fluoro-2-(((2R,7aS)-2-fluorotetrahydro-1H-pyrrolizin-7a(5H)-yl)methoxy)pyrido[4,3-d]pyrimidin-7-yl)-2,3-dihydro-1H-pyrrolo[1,2-a]indol-7-ol] showed an IC50 of 3.06 µM. In the test with GP2d cells, `Oc1cc(-c2cc3nc(OC[C@@]45CCCN4C[C@H](F)C5)nc(N4C[C@H]5CC[C@@H](C4)N5)c3cn2)c2c3c(ccc2c1)CCC3` [Example 30, 9-(4-((1R,5S)-3,8-diazabicyclo[3.2.1]octan-3-yl)-2-(((2R,7aS)-2-fluorotetrahydro-1H-pyrrolizin-7a(5H)-yl)methoxy)pyrido[4,3-d]pyrimidin-7-yl)-2,3-dihydro-1H-cyclopenta[a]naphthalen-7-ol] registered an IC50 of 0.409 µM.
